Values quoted from earlier work as cited in patent US20090036541A1, “Applicator and chemical combination for better topical anesthesia” (priority 2007, published 2009).

Details: compared with lidocaine

Structure (SMILES): CCCCNc1ccc(C(=O)OCCN(C)C)cc1 [tetracaine]
- potency relative to lidocaine: ten-fold
